One series concerns Caco-2 cells. As to conditions: tested concentrations (data not shown).
Series [1] deals with SARS-CoV-2. The series is classed as cell-based.
Series [2] relates to SARS-CoV-2. The class given is cell-based. Particulars: Calu-3 cells.
Another series addresses T1, TMPRSS2 (Homo sapiens, UniProt O15393).
T1 construct: expressed in transfected cells; host or cells: HEK-293T
Description: TMPRSS2 proteolytic activity in TMPRSS2-overexpressing HEK-293T cells, fluorogenic substrate BOC-QAR-AMC. The class given is cell-based.

The test system of another series is HEK-293T cells. The series is classed as cell-based, human. As to conditions: tested concentrations (data not shown).

These results are taken from patent publication US20210338787A1 (priority 2020, published 2021).

Structures can show the parent of a compound that is named as a salt. Where two headings read alike, the source gives them in different places.

T1 sequence (O15393 whole entry): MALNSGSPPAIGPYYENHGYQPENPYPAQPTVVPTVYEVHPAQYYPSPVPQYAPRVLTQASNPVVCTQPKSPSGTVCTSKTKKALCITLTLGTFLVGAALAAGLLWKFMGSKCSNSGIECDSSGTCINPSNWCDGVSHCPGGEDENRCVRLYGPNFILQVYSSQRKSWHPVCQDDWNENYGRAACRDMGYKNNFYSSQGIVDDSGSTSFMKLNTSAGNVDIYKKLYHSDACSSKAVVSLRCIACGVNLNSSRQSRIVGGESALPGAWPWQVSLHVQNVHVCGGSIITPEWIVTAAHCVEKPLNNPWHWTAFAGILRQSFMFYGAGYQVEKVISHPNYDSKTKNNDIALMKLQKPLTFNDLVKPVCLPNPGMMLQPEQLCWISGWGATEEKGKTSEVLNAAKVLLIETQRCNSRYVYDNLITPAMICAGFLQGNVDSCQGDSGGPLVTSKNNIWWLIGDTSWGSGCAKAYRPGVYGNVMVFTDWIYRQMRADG
Description for TMPRSS2: B. Arbitrary fluorescence unit (AFU) measurements of control or TMPRSS-overexpressing cells incubated with BOC-QAR-AMC for 75 minutes at 37° C. are shown. Wells containing PBS and BOC-QAR-AMC were used as background fluorescence reads. C. Fluorescence of control or TMPRSS2-overexpressing cells was measured every 15 minutes for a total time of 180 minutes. D. The average proteolytic activity rate per minute of control or TMPRSS2-overexpressing cells. The fluorescent signal was measured by the UV filter (excitation 365 nm and emission 410 nm).
The results in A-C are presented as the means±SE from at least 3 independent experiments performed in duplicate and/or triplicate.
The following describes the development of an experimental framework for quantifying TMPRSS2 proteolytic activity. TMPRSS2 with a C-terminal V5 tag was overexpressed in a human cell line, HEK-293T, because of its high transfectability.
The effect of protease inhibitors on TMPRSS2 activity was tested.

With `CN(C)C(=O)COC(=O)Cc1ccc(OC(=O)c2ccc(NC(=N)N)cc2)cc1` [camostat mesylate, reference compound], the “toxicity in Caco-2 cells” value with Caco-2 cells was “nontoxic”. For the same molecule, in the series on SARS-CoV-2 [1] (Caco-2 cells, 10 μM, twenty hours after infection), the “decrease in viral load (genomic SARS-CoV-2 from intracellular RNA) compared with untreated control cells” value is reported as −3.9 fold. In addition, the SARS-CoV-2 plaque formation result in the series on SARS-CoV-2 [2] (24 hours after infection) was “decreased SARS-CoV-2 plaque formation”; in the series on SARS-CoV-2 [2] (48 hours after infection), “effect of camostat lasted”.
alpha 1 antitrypsin [A1AT]: the IC50 with TMPRSS2 (BOC-QAR-AMC, read-out: IC50 of inhibition of TMPRSS2 proteolytic activity) worked out at 357 nM. Also, the “toxicity in Caco-2 cells” value in the series on Caco-2 cells is on record as “nontoxic”. Further, the “decrease in viral load (genomic SARS-CoV-2 from intracellular RNA) compared with untreated control cells” value in the series with SARS-CoV-2 [1] is on record as −2.6 fold. In the series with HEK-293T cells, the “toxic effects in viability assays” value is given as “did not demonstrate toxic effects”.

B1: secretory leukocyte protease inhibitor (protein, UniProt P03973 26-132, looked up)
Antileukoproteinase: SGKSFKAGVCPPKKSAQCLRYKKPECQSDWQCPGKKRCCPDTCGIKCLDPVDTPNPTRRKPGKCPVTYGQCLMLNPPNFCEMDGQCKRDLKCCMGMCGKSCVSPVKA
For B1, the “inhibition of TMPRSS2 proteolytic activity” value with TMPRSS2 (all tested concentrations) is on record as “none of the tested concentrations of SLPI inhibited TMPRSS2 proteolytic activity”.

In general, IC50 refers to the concentration that gives 50% inhibition.
